The target of one assay is T1, B1R receptor of the rat (Rattus norvegicus, UniProt P97583).
T1 construct: host or cells: CHO K1 cells (Chinese hamster ovary), stably transfected
T1 sequence (P97583 1-337): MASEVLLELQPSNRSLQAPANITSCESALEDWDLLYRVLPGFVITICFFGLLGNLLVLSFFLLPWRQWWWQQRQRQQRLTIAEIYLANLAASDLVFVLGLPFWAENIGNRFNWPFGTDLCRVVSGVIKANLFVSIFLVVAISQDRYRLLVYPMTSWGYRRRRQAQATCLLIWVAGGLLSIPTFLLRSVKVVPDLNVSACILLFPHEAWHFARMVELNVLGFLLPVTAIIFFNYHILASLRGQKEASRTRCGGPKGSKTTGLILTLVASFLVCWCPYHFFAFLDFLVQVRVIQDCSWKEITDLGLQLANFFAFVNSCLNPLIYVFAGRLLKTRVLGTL
Briefly: Functional study on the bradykinin receptor 1 (B1R), FLIPR Ca2+ assay, rB1R cells. It is filed as cell-based. Particulars: CHO-K1, test substance 10 μM, agonist Des-Arg9-bradykinin 100 nM, % inhibition compared with the maximum achievable inhibition, read-out: B1R Antagonism, rat [10 μM] % Inhibition. The procedure, abridged: (§1)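 Cells were dye-loaded 60 min at 37 °C, equilibrated 20 min at room temperature, then given 10 μM compound. Ten minutes later the species-matched agonist was added (0.5 nM Lys-Des-Arg9-bradykinin, human; 100 nM Des-Arg9-bradykinin, rat) and Ca2+ influx suppression expressed as % of maximum inhibition.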

A further assay has as its target T2, human B1R receptor (Homo sapiens, UniProt P46663).
T2 construct: host or cells: CHO K1 cells (Chinese hamster ovary), stably transfected
T2 sequence (P46663 1-353): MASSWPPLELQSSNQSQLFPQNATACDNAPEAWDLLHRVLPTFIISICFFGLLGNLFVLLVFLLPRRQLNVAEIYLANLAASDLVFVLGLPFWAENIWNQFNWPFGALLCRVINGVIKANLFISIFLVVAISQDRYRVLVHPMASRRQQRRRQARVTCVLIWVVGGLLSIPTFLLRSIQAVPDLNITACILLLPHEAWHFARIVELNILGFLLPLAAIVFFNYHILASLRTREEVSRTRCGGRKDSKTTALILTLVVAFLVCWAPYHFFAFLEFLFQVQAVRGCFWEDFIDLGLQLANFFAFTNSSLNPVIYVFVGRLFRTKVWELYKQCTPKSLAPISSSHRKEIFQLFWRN
Briefly: Functional study on the bradykinin receptor 1 (B1R), FLIPR Ca2+ assay, hB1R cells. It is filed as cell-based. The conditions noted are these: CHO-K1, test substance 10 μM, agonist Lys-Des-Arg9-bradykinin 0.5 nM, % inhibition compared with the maximum achievable inhibition, read-out: B1R Antagonism, human [10 μM] % Inhibition. A digest of the protocol:
as §1

The term inhibition denotes the relative decrease from the control value, in per cent.

Consider `COc1cc(C)c(S(=O)(=O)N2CCCCC2COCC(=O)NCCCN2CCOCC2)c(C)c1` (stereo not shown) [Example 344, 2-((1-(4-methoxy-2,6-dimethylphenylsulfonyl)piperidin-2-yl)methoxy)-N-(3-morpholinopropyl)acetamide], for which the figures for the inhibition at 10 µM on B1R receptor of the rat and on human B1R receptor were 88.4% and 48.8%, respectively.
On to `COc1cc(C)c(S(=O)(=O)N2CCCCC2COCC(=O)NCc2cccnc2)c(C)c1` (stereo not shown) [Example 345, 2-((1-(4-methoxy-2,6-dimethylphenylsulfonyl)piperidin-2-yl)methoxy)-N-(pyridin-3-ylmethyl)acetamide], for which the inhibition at 10 µM was found to be 95.9% at B1R receptor of the rat and 22.3% at human B1R receptor.
As for `COc1cc(C)c(S(=O)(=O)N2CCCC2COCC(=O)N2CCN(c3cccc(Cl)c3)CC2)c(C)c1` (stereo not shown) [Example 346, 1-(4-(3-chlorophenyl)piperazin-1-yl)-2-((1-(4-methoxy-2,6-dimethylphenylsulfonyl)pyrrolidin-2-yl)methoxy)ethanone], the inhibition at 10 µM worked out at 101% on B1R receptor of the rat and 95.5% at human B1R receptor.
With `COc1cc(C)c(S(=O)(=O)N2CCCC2COCC(=O)N2CCN(c3ccc(C)c(C)c3)CC2)c(C)c1` (stereo not shown) [Example 347, 1-(4-(3,4-dimethylphenyl)piperazin-1-yl)-2-((1-(4-methoxy-2,6-dimethylphenylsulfonyl)pyrrolidin-2-yl)methoxy)ethanone], the inhibition at 10 µM at B1R receptor of the rat amounted to 103%; at human B1R receptor, 56.6%.
As to `COc1cc(C)c(S(=O)(=O)N2CCCC2COCC(=O)N2CCN(c3ccc(Cl)c(Cl)c3)CC2)c(C)c1` (stereo not shown) [Example 348, 1-(4-(3,4-dichlorophenyl)piperazin-1-yl)-2-((1-(4-methoxy-2,6-dimethylphenylsulfonyl)pyrrolidin-2-yl)methoxy)ethanone], the inhibition at 10 µM at B1R receptor of the rat was 103%; at human B1R receptor it was 87.1%.
For the compound `COc1cc(C)c(S(=O)(=O)N2CCCC2COCC(=O)N2CCN(Cc3ccc(Cl)c(Cl)c3)CC2)c(C)c1` (stereo not shown) [Example 349, 1-(4-(3,4-dichlorobenzyl)piperazin-1-yl)-2-((1-(4-methoxy-2,6-dimethylphenylsulfonyl)pyrrolidin-2-yl)methoxy)ethanone], the values for the inhibition at 10 µM at B1R receptor of the rat and at human B1R receptor were 103% and 101%, respectively.
For the compound `COc1cc(C)c(S(=O)(=O)N2CCCC2COCC(=O)N2CCN(Cc3ccc(Br)cc3)CC2)c(C)c1` (stereo not shown) [Example 350, 1-(4-(4-bromobenzyl)piperazin-1-yl)-2-((1-(4-methoxy-2,6-dimethylphenylsulfonyl)pyrrolidin-2-yl)methoxy)ethanone], the inhibition at 10 µM on B1R receptor of the rat and at human B1R receptor was 104% each time.
`COc1cc(C)c(S(=O)(=O)N2CCCC2COCC(=O)N2CCN(Cc3c(C)cc(C)cc3C)CC2)c(C)c1` (stereo not shown) [Example 351, 2-((1-(4-methoxy-2,6-dimethylphenylsulfonyl)pyrrolidin-2-yl)methoxy)-1-(4-(2,4,6-trimethylbenzyl)piperazin-1-yl)ethanone]: the inhibition at 10 µM came to 104% at B1R receptor of the rat and 44% at human B1R receptor.
Take `COc1cc(C)c(S(=O)(=O)N2CCCC2COCC(=O)N2CCN(Cc3ccc(Cl)cc3)CC2)c(C)c1` (stereo not shown) [Example 352, 1-(4-(4-chlorobenzyl)piperazin-1-yl)-2-((1-(4-methoxy-2,6-dimethylphenylsulfonyl)pyrrolidin-2-yl)methoxy)ethanone]: the inhibition at 10 µM at B1R receptor of the rat and on human B1R receptor was 104% throughout.
As for `COc1cc(C)c(S(=O)(=O)N2CCCC2COCC(=O)N2CCN(Cc3ccc(C)cc3)CC2)c(C)c1` (stereo not shown) [Example 353, 2-((1-(4-methoxy-2,6-dimethylphenylsulfonyl)pyrrolidin-2-yl)methoxy)-1-(4-(4-methylbenzyl)piperazin-1-yl)ethanone], the inhibition at 10 µM at B1R receptor of the rat was found to be 102%; at human B1R receptor, 103%.
Turning to `O=C(COCC1CCCN1S(=O)(=O)c1c(Cl)cccc1Cl)N1CCN(c2cccc(Cl)c2)CC1` (stereo not shown) [Example 354, 1-(4-(3-chlorophenyl)piperazin-1-yl)-2-((1-(2,6-dichlorophenylsulfonyl)pyrrolidin-2-yl)methoxy)ethanone], the values for the inhibition at 10 µM on B1R receptor of the rat and at human B1R receptor were 102% and 62.5%, respectively.

(Values after patent US8435978B2, “Substituted sulfonamide compounds” (Gruenenthal GmbH, priority 2006, dated 2013).)
